Reference: ChEMBL document CHEMBL5523769, “Discovery of Novel Nonpeptidic and Noncovalent Small Molecule 3CLpro Inhibitors as anti-SARS-CoV-2 Drug Candidate” (J Med Chem, 2024)

Each compound was assayed against Replicase polyprotein 1ab (Severe acute respiratory syndrome coronavirus 2, UniProt P0DTD1).
O=C(NCC1CCCC1)C1CN(c2ccc(Cl)c(Cl)c2)CCN1C(=O)c1cc(=O)[nH]c2ccccc12 (stereo not given) was tested, and the IC50 was 280 nM. O=C(c1cc(=O)[nH]c2ccccc12)N1CCC(Nc2ccc(Cl)c(Cl)c2)C1 (stereo not given) was tested, and the IC50 was 8330 nM. O=C(N[C@@H]1CCC[C@@H]1Nc1ccc(Cl)c(Cl)c1)c1cc(=O)[nH]c2ccccc12 was tested, and the IC50 was over 10000 nM. With CN1CCN(C(=O)c2cc(C3CC3)cc([N+](=O)[O-])c2N[C@@H]2CCC[C@@H]2NC(=O)c2cc(=O)[nH]c3ccccc23)CC1 the IC50 was 24.9 nM. Work on O=C(NCCC(F)(F)F)[C@H]1CN(c2ccc(Cl)c(Cl)c2)CCN1C(=O)c1cc(=O)[nH]c2ccccc12 yielded an IC50 of 540 nM. In the case of CN1CCN(C(=O)C2CN(c3ccc(Cl)c(Cl)c3)CCN2C(=O)c2cc(=O)[nH]c3ccccc23)CC1 (stereo not given), the IC50 is reported as 1320 nM. O=C(C1CN(c2ccc(Cl)c(Cl)c2)CCN1C(=O)c1cc(=O)[nH]c2ccccc12)N1CC2(COC2)C1 (stereo not given) gave an IC50 of 2110 nM. O=C(NCC1CC1)C1CN(c2ccc(Cl)c(Cl)c2)CCN1C(=O)c1cc(=O)[nH]c2ccccc12 (stereo not given) showed an IC50 of 340 nM. O=C1CCN(C(=O)C2CN(c3ccc(Cl)c(Cl)c3)CCN2C(=O)c2cc(=O)[nH]c3ccccc23)CC1 (stereo not given) gave an IC50 of 3310 nM. In the case of O=C(NCC1CCC1)C1CN(c2ccc(Cl)c(Cl)c2)CCN1C(=O)c1cc(=O)[nH]c2ccccc12 (stereo not given), the IC50 is reported as 300 nM. With O=C(N[C@H]1CCC[C@H]1Nc1c(C(=O)N2CCOCC2)cc(C2CC2)cc1[N+](=O)[O-])c1cc(=O)[nH]c2c(F)cccc12 the IC50 was 21.3 nM. In the case of CN(CC1COCCO1)C(=O)C1CN(c2ccc(Cl)c(Cl)c2)CCN1C(=O)c1cc(=O)[nH]c2ccccc12 (stereo not given), the IC50 is reported as 2610 nM. With O=C(NCC1CCCO1)C1CN(c2ccc(Cl)c(Cl)c2)CCN1C(=O)c1cc(=O)[nH]c2ccccc12 (stereo not given) the IC50 was 350 nM. COc1ccc2[nH]c(=O)cc(C(=O)N[C@H]3CCC[C@H]3Nc3c(C(=O)N4CCN(C)CC4)cc(C4CC4)cc3[N+](=O)[O-])c2c1 gave an IC50 of 24 nM. With CNC(=O)c1cc(Br)cc([N+](=O)[O-])c1N[C@H]1CCC[C@H]1NC(=O)c1cc(=O)[nH]c2ccccc12 the IC50 was 51.3 nM. In the case of O=C(c1cc(=O)[nH]c2ccccc12)N1CCN(c2ccc(Cl)c(Cl)c2)CC1Cc1ccccc1 (stereo not given), the IC50 is reported as over 20000 nM. O=C(C1CN(c2ccc(Cl)c(Cl)c2)CCN1C(=O)c1cc(=O)[nH]c2ccccc12)N1CCOCC1 (stereo not given) showed an IC50 of 9470 nM. O=C1CC2CN(C(=O)C3CN(c4ccc(Cl)c(Cl)c4)CCN3C(=O)c3cc(=O)[nH]c4ccccc34)CC2C1 (stereo not given) gave an IC50 of 1850 nM. Work on O=C(N[C@H]1CCCC[C@H]1Nc1c(C(=O)N2CCOCC2)cc(C2CC2)cc1[N+](=O)[O-])c1cc(=O)[nH]c2c(F)cccc12 yielded an IC50 of 11.5 nM. For CN1CCN(C(=O)c2cc(Br)cc([N+](=O)[O-])c2N[C@@H]2CCC[C@@H]2NC(=O)c2cc(=O)[nH]c3ccccc23)CC1, the IC50 was 22.9 nM. For O=C(N[C@H]1CCC[C@H]1Nc1c(C(=O)N2CCOCC2)cc(C2CC2)cc1[N+](=O)[O-])c1cc(=O)[nH]c2ccccc12, the IC50 was 23.5 nM. O=C1CC2(CCN(C(=O)C3CN(c4ccc(Cl)c(Cl)c4)CCN3C(=O)c3cc(=O)[nH]c4ccccc34)CC2)C1 (stereo not given) showed an IC50 of 1290 nM. In the case of COc1ccc2[nH]c(=O)cc(C(=O)N[C@H]3CCC[C@H]3Nc3c(C(=O)N4CCOCC4)cc(C4CC4)cc3[N+](=O)[O-])c2c1, the IC50 is reported as 20.3 nM. In the case of CCCCNC(=O)C1CN(c2ccc(Cl)c(Cl)c2)CCN1C(=O)c1cc(=O)[nH]c2ccccc12 (stereo not given), the IC50 is reported as 580 nM. For CNC(=O)c1cc(Br)cc([N+](=O)[O-])c1NC1CCN(C(=O)c2cc(=O)[nH]c3ccccc23)C1 (stereo not given), the IC50 was 195 nM. Compound COc1ccc2[nH]c(=O)cc(C(=O)N[C@H]3CCCC[C@H]3Nc3c(C(=O)N4CCN(C)CC4)cc(Br)cc3[N+](=O)[O-])c2c1 has an IC50 of 18 nM. Compound CNC(=O)c1cc(Br)cc([N+](=O)[O-])c1N[C@@H]1CCCC[C@@H]1NC(=O)c1cc(=O)[nH]c2cc(F)ccc12 has an IC50 of 105 nM. Work on O=C(N[C@H]1CCC[C@H]1Nc1c(C(=O)N2CCOCC2)cc(Br)cc1[N+](=O)[O-])c1cc(=O)[nH]c2c(F)cccc12 yielded an IC50 of 36.5 nM. With O=C(C1CN(c2ccc(Cl)c(Cl)c2)CCN1C(=O)c1cc(=O)[nH]c2ccccc12)N1CCC2(CC1)COC2 (stereo not given) the IC50 was 2220 nM. Work on O=C(NCCN1CCOCC1)C1CN(c2ccc(Cl)c(Cl)c2)CCN1C(=O)c1cc(=O)[nH]c2ccccc12 (stereo not given) yielded an IC50 of 840 nM.
